Data taken from article PMC8290497, “Taxifolin, an Inhibitor of Sortase A, Interferes With the Adhesion of Methicillin-Resistant Staphylococcal aureus” (Frontiers in Microbiology, 2021).

How the values were obtained:
SrtA [1] = biological target: T1, SrtA (Staphylococcus aureus, UniProt Q2FV99); assay: Reversibility of SrtA inhibition (10 × IC50, dilution, FRET assay); type: biochemical; conditions: SrtA treated with 10-fold IC50 of Tax then diluted; compared with control group (DMSO)
T1 construct: 6xHis; made in house; host or cells: E. coli BL21 (DE3), plasmid pET28a-SrtA
Text: To identify novel inhibitors of SrtA, an in-house library containing 420 natural compounds was screened, using a FRET assay. […] To further clarify the interacting way of SrtA and Tax, recombinant SrtA was reacted with Tax at a concentration of 10-fold IC50. A total of 85.80 ± 0.67% of SrtA activity was subsequently recovered, compared with the control group (DMSO) (Figure 1C).
FIGURE 1 Inhibition of SrtA transpeptidation. (A) Chemical structure of Tax. (B) Tax inhibits SrtA cleavage of a fluorogenic peptide substrate (Abz-LPATG-Dnp-NH2) in a dose-dependent manner in vitro. Each reaction condition was assayed in triplicate from which the IC50 was determined. (C) Recombinant SrtA was treated with 10 × IC50 of Tax and then diluted, after which transpeptidation activity was measured using a FRET assay. Untreated SrtA (Control) represented 100% activity.

WT-SrtA = biological target: T2, WT-SrtA (Staphylococcus aureus, UniProt Q2FV99); assay: Fluorescence quenching assay, WT-SrtA; type: binding
T2 construct: 6xHis; made in house; host or cells: E. coli BL21 (DE3), plasmid pET28a-SrtA
Text: (§1) Molecular modeling studies highlight the benefits of performing site-directed mutagenesis studies. Therefore, fluorescence quenching experiments were utilized to determine the binding affinity of Tax with SrtA and SrtA mutants (D170A, Q172A).

D170A-SrtA mutant = biological target: T3, D170A-SrtA mutant (Staphylococcus aureus, UniProt Q2FV99, D170A); assay: Fluorescence quenching assay, D170A-SrtA; type: binding
T3 construct: 6xHis; made in house; host or cells: E. coli BL21 (DE3), mutated pET28a-SrtA
Procedure: Site-directed mutagenesis for D170A-SrtA and Q172A-SrtA was performed based on plasmid pET28a-SrtA using a multi-site mutagenesis kit (Transgen, Beijing, China) and the desired mutation was verified via DNA sequencing by Sangon Biotech (Shanghai, China). Subsequently, recombinant SrtA and the SrtA mutant proteins (D170A and Q172A) were expressed and purified in accordance with a previously published procedure ([Zhulenkovs et al., 2014]). Briefly, bacteria were cultured until an OD600 value of 0.8 was achieved, after which 0.5 mM isopropyl-β-D-thiogalactopyranoside (IPTG) was added to induce recombination of SrtA at 16°C overnight. Because the recombinant protein had 6 × His tags, it was purified using a nickel-nitrilotriacetic acid (Ni-NTA) purification system. Imidazole (10 mM) was used to wash away excess protein, while 400 mM imidazole was employed to elute the target protein.
as §1

HEK293 cells = assay: CCK-8 cytotoxicity assay, HEK293; type: cell-based
Procedure: Cytotoxicity was determined using a cell counting kit-8 assay (CCK-8, US EVERBRIGHT, Suzhou, China), as described previously ([Xiao et al., 2018]). HEK293 or HepG2 cells were seeded in 96-well plates (Corning, United States) at a density of 5 × 10^4 cells/well, then incubated at 37°C in an atmosphere containing 5% CO2 for 24 h. The culture medium was then exchanged with fresh medium containing different concentrations of Tax (0–200 μM) or vehicle and incubated for an additional 24 h. CCK-8 solution (10 μL) was carefully added then incubated for 4 h in an incubator at 37°C. The OD value at 450 nm was measured to calculate cell viability.
FIGURE 2 Growth curve and cytotoxicity. (A) Growth curves of S. aureus USA300 and the ΔsrtA group with different concentrations of Tax. (B) Growth rate of S. aureus USA300 and S. aureus treated with Tax (25 μM). (C) Percent cell viability of HEK293 (purple) and HepG2 (blue) cells were measured using a CCK-8 assay after incubation with Tax for 24 h.

SrtA [2] = biological target: T1, SrtA; assay: Localized surface plasmon resonance (LSPR); type: binding
Procedure: The interaction between Tax and SrtA was determined using an OpenSPR localized surface plasmon resonance (LSPR) instrument (Nicoya, Canada) at 25°C, as described previously ([Panneer Selvam et al., 2018]; [Song et al., 2019]). Briefly, SrtA proteins were captured on a COOH chip using a standard amine coupling system. A 200 μL aliquot of blocking buffer was added to rinse the sample ring and to remove any air. After a stable baseline had been achieved, the affinity between Tax and SrtA was measured by injecting 20, 40, 80, 160, or 320 μM Tax. The kinetic parameters of the binding reaction were calculated and visualized using TraceDrawer software ([Yang et al., 2011]).
FIGURE 4 Expression of SrtA in the presence of Tax and the interaction of different concentrations of Tax with SrtA. (A) Western blot analysis of SrtA protein from S. aureus treated with various concentrations of Tax and grayscale analysis of SrtA protein bands. (B) LSPR analysis verified the binding affinity of Tax with SrtA. Error bars represent means ± SD of three replicates. ***P < 0.001 calculated with a two-tailed Student’s t-test.

[3] = system: surface-anchored SpA of S. aureus; assay: FITC-IgG binding assay for staphylococcal protein A (SpA); type: cell-based; conditions: Staphylococcus aureus, read-out: SpA fluorescence, relative activity % of the WT group
Procedure: Bacterial cultures grown overnight were diluted 1:100 and cultured in an incubator at 37°C with Tax or DMSO to a concentration of 10^8 CFU/mL. The ΔsrtA mutant strain was assayed as a positive control. The bacteria were collected and washed three times in PBS. A 50 μL aliquot of bacterial culture was mixed with an equal volume of FITC-labeled rabbit anti-goat-IgG (1:200, Sigma, United States) then incubated in the dark for 1 h. The bacteria were then washed and suspended in PBS. A multimode microplate reader (Tecan, Spark 20M) was used to measure fluorescence intensity at 535 nm when illuminated at an excitation wavelength of 485 nm.
FIGURE 3 Effect of SrtA inhibitor on virulence-related phenotypes in S. aureus Newman strain. (A) Impact of Tax on the ability of S. aureus to adhere to fibrinogen. (B) Biofilm formation of S. aureus in the presence of different concentrations of Tax. (C) Mature biofilms of S. aureus in the presence of different concentrations of Tax. The ΔsrtA group represented the positive control. (D) Tax affects internalization of S. aureus into A549 cells. […] The number of viable S. aureus in the cells was quantified by serial dilution on TSA agar plates. […] Error bars represent means ± SD of three replicates. *P < 0.05, **P < 0.01, ***P < 0.001 calculated with a two-tailed Student’s t-test.

Compound: O=C1c2c(O)cc(O)cc2OC(c2ccc(O)c(O)c2)C1O (centres unmarked) [Tax, taxifolin]
- SrtA activity recovered (SrtA [1]): 85.80 ± 0.67%
- Kd (WT-SrtA): 15.6 µM
- Kd (D170A-SrtA mutant): 37.2 µM
- toxicity toward mammalian cells (HEK293) (HEK293 cells; 200 μM): did not display toxicity
- cytotoxicity toward HEK293 cells (HEK293 cells; at 24.53 ± 0.42 μM, 24 h): no significant cytotoxicity
- Kd (SrtA [2]): 165 µM
- kon (SrtA [2]; read-out: Ka): 22.3 M⁻¹ s⁻¹
- activity at 200 µM [3]: 36.1 ± 1.59%
